# Results reported in patent US9884832B2 (priority 2011, dated 2018).
# Molecular target: AM2 S31N (serine→asparagine mutation at residue 31 in the M2 protein) (Influenza A virus, UniProt P0DOF5, S31N)
# Type: cell-based, influenza virus A/Udorn/72
# Settings: not given
row,SMILES,S31N OOcyte Inhibition at 100 uM (%)
1,"OC12CC3CC(C1)CC(NCc1cc4sccc4s1)(C3)C2 [Example 192a, 3-[(Thieno[3,2-b]thiophen-2-ylmethyl)-amino]-adamantan-1-ol]",A (key: (A)=31-95%; (B)=0-30%)
2,"Clc1ccc2[nH]c(CNC34CC5CC(CC(C5)C3)C4)nc2c1 [Example 181a, Adamantan-1-yl-(5-chloro-1H-benzoimidazol-2-ylmethyl)-amine]",A (key: (A)=31-95%; (B)=0-30%)
3,"Cn1c(CNC23CC4CC(CC(C4)C2)C3)nc2ccccc21 [Example 180a, Adamantan-1-yl-(1-methyl-1H-benzoimidazol-2-ylmethyl)-amine]",B (key: (A)=31-95%; (B)=0-30%)
4,"Cc1oc(-c2cccs2)nc1CNC12CC3CC(CC(C3)C1)C2 [Example 145a, N-((5-methyl-2-(thiophen-2-yl)oxazol-4-yl)methyl)adamantan-1-amine]",B (key: (A)=31-95%; (B)=0-30%)
5,"Cc1cc(CNC23CC4CC(CC(C4)C2)C3)no1 [Example 95a, N-((5-methylisoxazol-3-yl)methyl)adamantan-1-amine]",A (key: (A)=31-95%; (B)=0-30%)
6,"Fc1ccc(-c2cc(CNC34CC5CC(CC(C5)C3)C4)no2)cc1 [Example 118a, N-((5-(4-fluorophenyl)isoxazol-3-yl)methyl)adamantan-1-amine]",A (key: (A)=31-95%; (B)=0-30%)
7,"Clc1cccc2cc(CNC34CC5CC(CC(C5)C3)C4)sc12 [Example 183a, Adamantan-1-yl-(7-chloro-benzo[b]thiophen-2-ylmethyl)-amine]",B (key: (A)=31-95%; (B)=0-30%)
8,CSc1ccc(CNC23CC4CC(CC(C4)C2)C3)s1 [Example 90a],A (key: (A)=31-95%; (B)=0-30%)
9,c1ccc(-c2cc(CNC34CC5CC(CC(C5)C3)C4)on2)cc1 [Example 164a],A (key: (A)=31-95%; (B)=0-30%)
10,"Clc1ccc(-c2cc(CNC34CC5CC(CC(C5)C3)C4)no2)cc1 [Example 119a, N-((5-(4-chlorophenyl)isoxazol-3-yl)methyl)adamantan-1-amine]",A (key: (A)=31-95%; (B)=0-30%)
11,"c1cn(-c2ccc(CNC34CC5CC(CC(C5)C3)C4)cc2)cn1 [Example 36a, N-(4-(1H-imidazol-1-yl)benzyl)adamantan-1-amine]",26.9%
12,Oc1cc(-c2cccs2)ccc1CNC12CC3CC(CC(C3)C1)C2 [Example 49a],B (key: (A)=31-95%; (B)=0-30%)
13,"c1ccc(-c2ncc(CNC34CC5CC(CC(C5)C3)C4)cn2)cc1 [Example 63a, N-((2-phenylpyrimidin-5-yl)methyl)adamantan-1-amine]",A (key: (A)=31-95%; (B)=0-30%)
14,"c1cncc(-c2noc(CNC34CC5CC(CC(C5)C3)C4)n2)c1 [Example 135a, Adamantan-1-yl-(3-pyridin-3-yl-[1,2,4]oxadiazol-5-ylmethyl)-amine]",A (key: (A)=31-95%; (B)=0-30%)
15,"c1csc(-c2cc(CNC34CC5CC(CC(C5)C3)C4)on2)c1 [Example 149a, N-((3-(thiophen-2-yl)isoxazol-5-yl)methyl)adamantan-1-amine]",A (key: (A)=31-95%; (B)=0-30%)
16,CCc1nc(CNC23CC4CC(CC(C4)C2)C3)no1 [Example 165a],A (key: (A)=31-95%; (B)=0-30%)
17,"Clc1cc2cc(CNC34CC5CC(CC(C5)C3)C4)sc2s1 [Example 173a, Adamantan-1-yl-(5-chloro-thieno[2,3-b]thiophen-2-ylmethyl)-amine]",A (key: (A)=31-95%; (B)=0-30%)
18,"OC12CC3CC(C1)CC(NCc1cc4cc(Br)sc4s1)(C3)C2 [Example 195a, 3-[(5-Bromo-thieno[2,3-b]thiophen-2-ylmethyl)-amino]-adamantan-1-ol]",A (key: (A)=31-95%; (B)=0-30%)
19,"c1ccc(-c2nc(CNC34CC5CC(CC(C5)C3)C4)c[nH]2)cc1 [Example 114a, N-((2-phenyl-1H-imidazol-4-yl)methyl)adamantan-1-amine]",B (key: (A)=31-95%; (B)=0-30%)
20,"c1cc(C2CC2)ccc1CNC12CC3CC(CC(C3)C1)C2 [Example 9a, N-(4-Cyclopropylbenzyl)adamantan-1-amine]",A (key: (A)=31-95%; (B)=0-30%)
21,"COc1ccc2nc(CN(Cc3nc4ccc(OC)cc4[nH]3)C34CC5CC(CC(C5)C3)C4)[nH]c2c1 [Example 201a, Adamantan-1-yl-bis-(6-methoxy-1H-benzoimidazol-2-ylmethyl)-amine]",B (key: (A)=31-95%; (B)=0-30%)
22,"OC12CC3CC(C1)CC(NCc1cc(-c4ccccc4)on1)(C3)C2 [Example 194a, (1s,3r,5R,7S)-3-(((5-phenylisoxazol-3-yl)methyl)amino)adamantan-1-ol]",A (key: (A)=31-95%; (B)=0-30%)

# Same assay, conditions: pH 5.5
row,SMILES,S31N OOcyte Inhibition at 100 uM (%)
1,"Brc1ccsc1CNC12CC3CC(CC(C3)C1)C2 [Example 47b, N-((3-Bromothiophen-2-yl)methyl)adamantan-1-amine]",B (key: (A)=31-95%; (B)=0-30%)
2,"CN(C)c1ncc(CNC23CC4CC(CC(C4)C2)C3)cn1 [Example 59b, N-((2-dimethylaminopyrimidin-5-yl)methyl)adamantan-1-amine]",A (key: (A)=31-95%; (B)=0-30%)
3,"c1nc(CNC23CC4CC(CC(C4)C2)C3)sc1C1CC1 [Example 65b, Adamantan-1-yl-(5-cyclopropyl-thiazol-2-ylmethyl)-amine]",A (key: (A)=31-95%; (B)=0-30%)
4,"CCSc1ncc(CNC23CC4CC(CC(C4)C2)C3)cn1 [Example 56b, N-((2-(ethylthio)pyrimidin-5-yl)methyl)adamantan-1-amine]",A (key: (A)=31-95%; (B)=0-30%)
5,"COc1ccccc1-c1noc(CNC23CC4CC(CC(C4)C2)C3)n1 [Example 30b, N-((3-(2-methoxyphenyl)-1,2,4-oxadiazol-5-yl)methyl)adamantan-1-amine]",A (key: (A)=31-95%; (B)=0-30%)
6,"c1nc(N2CCOCC2)ncc1CNC12CC3CC(CC(C3)C1)C2 [Example 57b, N-((2-morpholinopyrimidin-5-yl)methyl)adamantan-1-amine]",A (key: (A)=31-95%; (B)=0-30%)
7,"COc1ccc(Cc2nc(CNC34CC5CC(CC(C5)C3)C4)no2)cc1OC [Example 28b, N-((5-(3,4-dimethoxybenzyl)-1,2,4-oxadiazol-3-yl)methyl)adamantan-1-amine]",A (key: (A)=31-95%; (B)=0-30%)
8,"Fc1cccc(F)c1-c1cc(CNC23CC4CC(CC(C4)C2)C3)no1 [Example 38b, N-((5-(2,6-difluorophenyl)isoxazol-3-yl)methyl)adamantan-1-amine]",A (key: (A)=31-95%; (B)=0-30%)
9,"COCc1nc(CNC23CC4CC(CC(C4)C2)C3)no1 [Example 23b, N-((5-(methoxymethyl)-1,2,4-oxadiazol-3-yl)methyl)adamantan-1-amine]",A (key: (A)=31-95%; (B)=0-30%)
10,"COc1ccc2nc(CNC34CC5CC(CC(C5)C3)C4)[nH]c2c1 [Example 79b, Adamantan-1-yl-(6-methoxy-1H-benzoimidazol-2-ylmethyl)-amine]",A (key: (A)=31-95%; (B)=0-30%)
11,"c1csc(-c2ccc(CNC34CC5CC(CC(C5)C3)C4)nn2)c1 [Example 71b, Adamantan-1-yl-(6-thiophen-2-yl-pyridazin-3-ylmethyl)-amine]",A (key: (A)=31-95%; (B)=0-30%)
12,"c1cc2[nH]c(CNC34CC5CC(CC(C5)C3)C4)cc2o1 [Example 78b, Adamantan-1-yl-(4H-furo[3,2-b]pyrrol-5-ylmethyl)-amine]",A (key: (A)=31-95%; (B)=0-30%)
13,"c1nc(C2CCCCC2)ncc1CNC12CC3CC(CC(C3)C1)C2 [Example 61b, N-((2-cyclohexylpyrimidin-5-yl)methyl)adamantan-1-amine]",A (key: (A)=31-95%; (B)=0-30%)
14,"Cc1csc(-c2ccc(CNC34CC5CC(CC(C5)C3)C4)cc2)c1 [Example 5b, N-(4-(4-Methylthiophen-2-yl)benzyl)adamantan-1-amine]",A (key: (A)=31-95%; (B)=0-30%)
15,"CSc1ccc(-c2cc(CNC34CC5CCC(CC(C5)C3)C4)no2)cc1 [Example 91b, (1S,3R,8S)—N-((5-(4-(methylthio)phenyl)isoxazol-3-yl)methyl)tricyclo[4.3.1.13,8]undecan-1-amine]",A (key: (A)=31-95%; (B)=0-30%)
16,"Fc1cc(F)cc(-c2cc(CNC34CC5CC(CC(C5)C3)C4)no2)c1 [Example 33b, N-((5-(3,5-difluorophenyl)isoxazol-3-yl)methyl)adamantan-1-amine]",A (key: (A)=31-95%; (B)=0-30%)
17,"CSc1ccccc1-c1ccc(CNC23CC4CC(CC(C4)C2)C3)nc1 [Example 67b, Adamantan-1-yl-[5-(2-methylsulfanyl-phenyl)-pyridin-2-ylmethyl]-amine]",A (key: (A)=31-95%; (B)=0-30%)
18,"Cc1noc(C)c1-c1nc(CNC23CC4CC(CC(C4)C2)C3)no1 [Example 25b, N-((5-(3,5-dimethylisoxazol-4-yl)-1,2,4-oxadiazol-3-yl)methyl)adamantan-1-amine]",B (key: (A)=31-95%; (B)=0-30%)
19,"Clc1nc(CNC23CC4CC(CC(C4)C2)C3)ns1 [Example 10b, N-((5-chloro-1,2,4-thiadiazol-3-yl)methyl)adamantan-1-amine]",A (key: (A)=31-95%; (B)=0-30%)
20,"OC12CC3CC(C1)CC(NCc1noc(C4CCCCC4)n1)(C3)C2 [Example 86b, (1s,3r,5R,7S)-3-(((5-cyclohexyl-1,2,4-oxadiazol-3-yl)methyl)amino)adamantan-1-ol]",A (key: (A)=31-95%; (B)=0-30%)
21,"Clc1ccccc1-c1ccc(CNC23CC4CC(CC(C4)C2)C3)nc1 [Example 72b, Adamantan-1-yl-[5-(2-chloro-phenyl)-pyridin-2-ylmethyl]-amine]",A (key: (A)=31-95%; (B)=0-30%)
22,"c1nc(N2CCCC2)ncc1CNC12CC3CC(CC(C3)C1)C2 [Example 54b, N-((2-(pyrrolidin-1-yl)pyrimidin-5-yl)methyl)adamantan-1-amine]",A (key: (A)=31-95%; (B)=0-30%)
